{
  "source": "patent US3956068A",
  "about": "“Antibiotic G-52 and method for the production thereof” (Schering Corporation, priority 1975, dated 1976)",
  "key": {"[1]": {"test_system": "Staphylococcus aureus A.T.C.C. 6538P", "test": "Microbiological assay, standard disc plate assay", "format": "cell-based", "conditions": "against the standard antibiotic base (1000 mcg/mg)", "source_text": "6538P as the test organism."}, "[2]": {"test_system": "Escherichia coli", "test": "In vivo protective activity in mice", "set-up": "species or system Mice (Carworth Farms CF-1)", "conditions": "S.C., single dose of antibiotic (sulfate) 1 hour after intraperitoneal infection, survivors at 48 hours", "procedure": "(§1) In vivo Activity of Antibiotic G-52 in Mice\n(§2) ^a Mice (Carworth Farms CF-1 weighing about 18 - 20 grams) are treate\n(§3) with a single dose of antibiotic (sulfate) one (1) hour after an\n(§4) intraperitoneal infection with a lethal (10^7 organisms) quantity of\n(§5) the infectious organism. The number of survivors are determined 48 hours\n(§6) after infection and the data analyzed by standard probit procedures to\n(§7) determine the PD50 values with 95% confidence limits."}, "[3]": {"test_system": "Staphylococcus aureus Gray", "test": "In vivo protective activity in mice", "set-up": "species or system Mice (Carworth Farms CF-1)", "conditions": "S.C., single dose of antibiotic (sulfate) 1 hour after intraperitoneal infection, survivors at 48 hours", "procedure": "as §1, §2, §3, §4, §5, §6, §7"}, "[4]": {"test_system": "Pseudomonas aeruginosa", "test": "In vivo protective activity in mice", "set-up": "species or system Mice (Carworth Farms CF-1)", "conditions": "S.C., single dose of antibiotic (sulfate) 1 hour after intraperitoneal infection, survivors at 48 hours", "procedure": "as §1, §2, §3, §4, §5, §6, §7"}, "[5]": {"test_system": "Pseudomonas aeruginosa 236 - GR", "test": "In vitro antibacterial activity, minimum inhibitory concentration", "format": "cell-based", "conditions": "Tryptose phosphate broth at pH 7.2", "source_text": "(§8) In vitro Antibacterial Activity\n(§9) Minimum Inhibitory Concentration\n(§10) Test Medium: Tryptose phosphate broth at pH 7.2."}, "[6]": {"test_system": "Streptococcus pyogenes C", "test": "In vitro antibacterial activity, minimum inhibitory concentration", "format": "cell-based", "conditions": "Tryptose phosphate broth at pH 7.2", "source_text": "as §8, §9, §10"}, "[7]": {"test_system": "Proteus mirabilis 8019", "test": "In vitro antibacterial activity, minimum inhibitory concentration", "format": "cell-based", "conditions": "Tryptose phosphate broth at pH 7.2", "source_text": "as §8, §9, §10"}, "[8]": {"test_system": "Staphylococcus aureus 209P", "test": "In vitro antibacterial activity, minimum inhibitory concentration", "format": "cell-based", "conditions": "Tryptose phosphate broth at pH 7.2", "source_text": "as §8, §9, §10"}, "[9]": {"test_system": "Pseudomonas aeruginosa 130 - GR", "test": "In vitro antibacterial activity, minimum inhibitory concentration", "format": "cell-based", "conditions": "Tryptose phosphate broth at pH 7.2", "source_text": "as §8, §9, §10"}, "[10]": {"test_system": "Escherichia coli 11775", "test": "In vitro antibacterial activity, minimum inhibitory concentration", "format": "cell-based", "conditions": "Tryptose phosphate broth at pH 7.2", "source_text": "as §8, §9, §10"}, "[11]": {"test_system": "Salmonella paratyphi 13311", "test": "In vitro antibacterial activity, minimum inhibitory concentration", "format": "cell-based", "conditions": "Tryptose phosphate broth at pH 7.2", "source_text": "as §8, §9, §10"}, "[12]": {"test_system": "Staphylococcus aureus 45", "test": "In vitro antibacterial activity, minimum inhibitory concentration", "format": "cell-based", "conditions": "Tryptose phosphate broth at pH 7.2", "source_text": "as §8, §9, §10"}, "[13]": {"test_system": "Klebsiella pneumoniae Ad 17 - kR", "test": "In vitro antibacterial activity, minimum inhibitory concentration", "format": "cell-based", "conditions": "Tryptose phosphate broth at pH 7.2", "source_text": "as §8, §9, §10"}, "[14]": {"test_system": "Escherichia coli 578", "test": "In vitro antibacterial activity, minimum inhibitory concentration", "format": "cell-based", "conditions": "Tryptose phosphate broth at pH 7.2", "source_text": "as §8, §9, §10"}, "[15]": {"test_system": "mice (CF-1)", "test": "Acute toxicity in mice", "format": "in vivo", "conditions": "sulfate salt", "procedure": "^b The acute toxicity of Antibiotic G-52 in the form of the sulfate\nsalt is determined in the standard manner by administration of the\nantibiotic to mice (CF-1) intravenously, subcutaneously and\nintraperitoneally. The results are analyzed by standard probit procedures\nto determine the LD50 values with 95% confidence limits."}, "[16]": {"test": "Solubility"}, "[17]": {"test": "Stability to boiling in buffer", "format": "physicochemical", "source_text": "Further, the antibiotic is stable to boiling for at least thirty (30) minutes in MacIlvaines buffer from pH 2 - 8 and in sodium hydroxide-boric acid buffer from pH 8 - 10."}},
  "note": "Where a name gives a salt, the structure may show the parent alone.",
  "data": [
    {"smiles": "CNCC1=CCC(N)C(OC2C(N)CC(N)C(OC3OCC(C)(O)C(NC)C3O)C2O)O1", "note": "(centres unmarked) [Antibiotic G-52 sulfate]", "values": [
      {"measurement": "potency (microbiological assay)", "setting": "[1]", "result": "about 675 mcg/mg"},
      {"measurement": "potency (microbiological assay)", "setting": "[1]; listed as Antibiotic G-52 Sulfate", "result": 660, "unit": "mcg/mg"}
    ]},
    {"smiles": "CNCC1=CC[C@@H](N)[C@@H](O[C@H]2[C@H](O)[C@@H](O[C@H]3OC[C@](C)(O)[C@H](NC)[C@H]3O)[C@H](N)C[C@@H]2N)O1", "note": "[Antibiotic G-52]", "values": [
      {"measurement": "potency (microbiological assay)", "setting": "[1]; listed as Antibiotic G-52 Base", "result": "about 1000 mcg/mg"},
      {"measurement": "PD50", "setting": "[2]", "result": 2.5, "unit": "mg/kg"},
      {"measurement": "PD50", "setting": "[3]", "result": 2.5, "unit": "mg/kg"},
      {"measurement": "PD50", "setting": "[4]", "result": 1.5, "unit": "mg/kg"},
      {"measurement": "Minimum Inhibitory Concentration (MIC)", "setting": "[5]", "result": 25, "unit": "µg/mL"},
      {"measurement": "Minimum Inhibitory Concentration (MIC)", "setting": "[6]", "result": 25, "unit": "µg/mL"},
      {"measurement": "Minimum Inhibitory Concentration (MIC)", "setting": "[7]", "result": 7.5, "unit": "µg/mL"},
      {"measurement": "Minimum Inhibitory Concentration (MIC)", "setting": "[8]", "result": 0.3, "unit": "µg/mL"},
      {"measurement": "Minimum Inhibitory Concentration (MIC)", "setting": "[9]", "result": 25, "unit": "µg/mL"},
      {"measurement": "Minimum Inhibitory Concentration (MIC)", "setting": "[10]", "result": 3.0, "unit": "µg/mL"},
      {"measurement": "Minimum Inhibitory Concentration (MIC)", "setting": "[11]", "result": 17.5, "unit": "µg/mL"},
      {"measurement": "Minimum Inhibitory Concentration (MIC)", "setting": "[12]", "result": 0.8, "unit": "µg/mL"},
      {"measurement": "Minimum Inhibitory Concentration (MIC)", "setting": "[13]", "result": 0.8, "unit": "µg/mL"},
      {"measurement": "Minimum Inhibitory Concentration (MIC)", "setting": "[14]", "result": 7.5, "unit": "µg/mL"},
      {"measurement": "LD50", "setting": "[15]; I.P.", "result": 200, "unit": "mg/kg"},
      {"measurement": "LD50", "setting": "[15]; I.V.", "result": 50, "unit": "mg/kg"},
      {"measurement": "LD50", "setting": "[15]; S.C.", "result": 400, "unit": "mg/kg"},
      {"measurement": "solubility in polar organic solvents", "setting": "[16]; lower alcohols, dimethylformamide, dimethylsulfoxide, pyridine", "result": "some degree of solubility in most polar organic solvents"},
      {"measurement": "solubility in water", "setting": "[16]; water", "result": "very soluble in water"},
      {"measurement": "stable to boiling", "setting": "[17]; MacIlvaines buffer, pH 2 - 8", "result": "≥ 30", "unit": "min"},
      {"measurement": "stable to boiling", "setting": "[17]; sodium hydroxide-boric acid buffer, pH 8 - 10", "result": "≥ 30", "unit": "min"}
    ]}
  ]
}
